Results: ChEMBL document CHEMBL4477225, “Development of a cell viability assay to assess drug metabolite structure-toxicity relationships” (Bioorg Med Chem Lett, 2016)

Tests used:
Format in all cases: ADME, cell-based
Conditions in all cases: recombinant enzyme
Cytochrome P450 3A4 [1] = target: T1, Cytochrome P450 3A4 (Homo sapiens, UniProt P08684); test: (§1) Drug activation in human Hep3B cells assessed as human CYP3A4-mediated drug metabolism-induced cytotoxicity measured as decrease in cell viability at 22.3 uM pre-incubated with BSO for 18 hrs followed by incubation with compound for 3 hrs in presence of NADPH measured after 24 hrs in absence of compound, CYP3A4 and NADPH by cell titer-glo luminescence assay relative to BSO alone
T1 sequence (P08684 whole entry): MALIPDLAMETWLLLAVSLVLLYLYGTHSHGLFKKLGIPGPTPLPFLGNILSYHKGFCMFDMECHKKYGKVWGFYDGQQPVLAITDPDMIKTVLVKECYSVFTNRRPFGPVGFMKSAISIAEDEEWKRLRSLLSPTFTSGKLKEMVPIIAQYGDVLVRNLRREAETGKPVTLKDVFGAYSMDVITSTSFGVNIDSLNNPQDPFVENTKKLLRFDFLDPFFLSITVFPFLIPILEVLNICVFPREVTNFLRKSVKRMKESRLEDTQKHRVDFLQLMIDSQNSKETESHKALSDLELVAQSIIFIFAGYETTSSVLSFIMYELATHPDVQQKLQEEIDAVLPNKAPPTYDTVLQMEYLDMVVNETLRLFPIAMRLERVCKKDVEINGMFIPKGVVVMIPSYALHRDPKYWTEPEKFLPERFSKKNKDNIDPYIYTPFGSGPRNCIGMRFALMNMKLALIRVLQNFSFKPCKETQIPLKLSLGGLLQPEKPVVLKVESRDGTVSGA

Cytochrome P450 2D6 [2] = target: T2, Cytochrome P450 2D6 (Homo sapiens, UniProt P10635); test: as §1, with “CYP2D6-mediated” for “CYP3A4-mediated”, “17.6” for “22.3”
T2 sequence (P10635 whole entry): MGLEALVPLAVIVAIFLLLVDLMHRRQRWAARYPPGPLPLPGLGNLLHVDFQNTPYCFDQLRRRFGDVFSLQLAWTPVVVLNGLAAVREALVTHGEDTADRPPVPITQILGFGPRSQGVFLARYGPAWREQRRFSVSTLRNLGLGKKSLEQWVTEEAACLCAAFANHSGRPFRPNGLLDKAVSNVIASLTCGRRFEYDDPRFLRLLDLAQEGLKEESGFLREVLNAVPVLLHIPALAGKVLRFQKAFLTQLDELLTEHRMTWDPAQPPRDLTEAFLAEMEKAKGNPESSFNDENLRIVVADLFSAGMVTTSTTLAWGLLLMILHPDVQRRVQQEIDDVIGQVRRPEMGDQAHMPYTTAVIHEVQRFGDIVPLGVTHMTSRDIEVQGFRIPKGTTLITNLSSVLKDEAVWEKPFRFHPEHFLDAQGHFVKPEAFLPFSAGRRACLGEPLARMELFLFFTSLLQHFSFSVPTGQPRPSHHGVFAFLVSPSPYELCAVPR

Cytochrome P450 2C9 [3] = target: T3, Cytochrome P450 2C9 (Homo sapiens, UniProt P11712); test: as §1, with “CYP2C9-mediated” for “CYP3A4-mediated”, “39” for “22.3”
T3 sequence (P11712 whole entry): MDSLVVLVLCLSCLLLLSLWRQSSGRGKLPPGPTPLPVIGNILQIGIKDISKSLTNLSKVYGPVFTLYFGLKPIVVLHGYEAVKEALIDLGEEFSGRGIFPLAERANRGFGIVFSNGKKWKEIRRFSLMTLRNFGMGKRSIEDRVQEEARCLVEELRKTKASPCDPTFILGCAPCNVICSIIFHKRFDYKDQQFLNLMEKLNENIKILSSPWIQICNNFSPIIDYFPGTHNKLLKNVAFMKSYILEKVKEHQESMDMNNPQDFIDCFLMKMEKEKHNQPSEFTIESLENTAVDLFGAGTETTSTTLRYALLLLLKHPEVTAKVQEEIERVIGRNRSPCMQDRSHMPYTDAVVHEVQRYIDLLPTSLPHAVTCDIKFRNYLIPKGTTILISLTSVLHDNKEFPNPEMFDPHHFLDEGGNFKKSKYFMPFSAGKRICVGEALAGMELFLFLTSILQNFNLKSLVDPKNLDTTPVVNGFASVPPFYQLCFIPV

Cytochrome P450 3A4 [4] = target: T1, Cytochrome P450 3A4; test: as §1, with “74.4” for “22.3”
Cytochrome P450 2D6 [5] = target: T2, Cytochrome P450 2D6; test: as §1, with “CYP2D6-mediated” for “CYP3A4-mediated”, “21.3” for “22.3”
Cytochrome P450 2C9 [6] = target: T3, Cytochrome P450 2C9; test: as §1, with “CYP2C9-mediated” for “CYP3A4-mediated”, “51.1” for “22.3”
Cytochrome P450 3A4 [7] = target: T1, Cytochrome P450 3A4; test: as §1, with “20.4” for “22.3”
Cytochrome P450 2D6 [8] = target: T2, Cytochrome P450 2D6; test: as §1, with “CYP2D6-mediated” for “CYP3A4-mediated”, “27.8” for “22.3”
Cytochrome P450 2C9 [9] = target: T3, Cytochrome P450 2C9; test: as §1, with “CYP2C9-mediated” for “CYP3A4-mediated”, “136.1” for “22.3”
Cytochrome P450 3A4 [10] = target: T1, Cytochrome P450 3A4; test: as §1, with “29.6” for “22.3”
Cytochrome P450 2D6 [11] = target: T2, Cytochrome P450 2D6; test: as §1, with “CYP2D6-mediated” for “CYP3A4-mediated”, “79.2” for “22.3”
Cytochrome P450 2C9 [12] = target: T3, Cytochrome P450 2C9; test: as §1, with “CYP2C9-mediated” for “CYP3A4-mediated”, “49.7” for “22.3”
Cytochrome P450 2D6 [13] = target: T2, Cytochrome P450 2D6; test: as §1, with “CYP2D6-mediated” for “CYP3A4-mediated”, “13” for “22.3”
Cytochrome P450 2C9 [14] = target: T3, Cytochrome P450 2C9; test: as §1, with “CYP2C9-mediated” for “CYP3A4-mediated”, “9.1” for “22.3”
Cytochrome P450 3A4 [15] = target: T1, Cytochrome P450 3A4; test: as §1, with “14” for “22.3”
Cytochrome P450 2D6 [16] = target: T2, Cytochrome P450 2D6; test: as §1, with “CYP2D6-mediated” for “CYP3A4-mediated”, “31.6” for “22.3”
Cytochrome P450 2C9 [17] = target: T3, Cytochrome P450 2C9; test: as §1, with “CYP2C9-mediated” for “CYP3A4-mediated”, “224.2” for “22.3”
Cytochrome P450 3A4 [18] = target: T1, Cytochrome P450 3A4; test: as §1, with “90.1” for “22.3”
Cytochrome P450 2D6 [19] = target: T2, Cytochrome P450 2D6; test: as §1, with “CYP2D6-mediated” for “CYP3A4-mediated”, “113.7” for “22.3”
Cytochrome P450 2C9 [20] = target: T3, Cytochrome P450 2C9; test: as §1, with “CYP2C9-mediated” for “CYP3A4-mediated”, “174.8” for “22.3”
Cytochrome P450 3A4 [21] = target: T1, Cytochrome P450 3A4; test: as §1, with “53.7” for “22.3”
Cytochrome P450 2D6 [22] = target: T2, Cytochrome P450 2D6; test: as §1, with “CYP2D6-mediated” for “CYP3A4-mediated”, “2.1” for “22.3”
Cytochrome P450 2C9 [23] = target: T3, Cytochrome P450 2C9; test: as §1, with “CYP2C9-mediated” for “CYP3A4-mediated”, “452.5” for “22.3”

`O=C(c1ccccc1)c1ccc2n1CCC2C(=O)O` (stereo not drawn) [KETOROLAC] was tested, and the “fold change (FC)” value (Cytochrome P450 3A4 [1]) was 0.6, the “fold change (FC)” value (Cytochrome P450 2D6 [2]) was 0.8 and the “fold change (FC)” value (Cytochrome P450 2C9 [3]) was 0.4.

With `CN(C)CCCN1c2ccccc2CCc2ccccc21` [IMIPRAMINE] the “fold change (FC)” value (Cytochrome P450 3A4 [4]) was 0.2, the “fold change (FC)” value (Cytochrome P450 2D6 [5]) was 0.7 and the “fold change (FC)” value (Cytochrome P450 2C9 [6]) was 0.3.

`CCc1nn(CCCN2CCN(c3cccc(Cl)c3)CC2)c(=O)n1CCOc1ccccc1` [NEFAZODONE] was tested, and the “fold change (FC)” value (Cytochrome P450 3A4 [7]) was 4.1, the “fold change (FC)” value (Cytochrome P450 2D6 [8]) was 3 and the “fold change (FC)” value (Cytochrome P450 2C9 [9]) was 0.6.

With `CC(C)(O)c1ccccc1CC[C@@H](SCC1(CC(=O)O)CC1)c1cccc(/C=C/c2ccc3ccc(Cl)cc3n2)c1` [MONTELUKAST] the “fold change (FC)” value (Cytochrome P450 3A4 [10]) was 1.2, the “fold change (FC)” value (Cytochrome P450 2D6 [11]) was 0.5 and the “fold change (FC)” value (Cytochrome P450 2C9 [12]) was 0.7.

With `Fc1ccc([C@@H]2CCNC[C@H]2COc2ccc3c(c2)OCO3)cc1` [PAROXETINE] the “fold change (FC)” value (Cytochrome P450 2D6 [13]) was 0.4 and the “fold change (FC)” value (Cytochrome P450 2C9 [14]) was 0.6.

With `CC(O)(CS(=O)(=O)c1ccc(F)cc1)C(=O)Nc1ccc(C#N)c(C(F)(F)F)c1` (stereo not drawn) [BICALUTAMIDE] the “fold change (FC)” value (Cytochrome P450 3A4 [15]) was 1.7, the “fold change (FC)” value (Cytochrome P450 2D6 [16]) was 0.7 and the “fold change (FC)” value (Cytochrome P450 2C9 [17]) was 0.1.

With `CC(C)C(=O)Nc1ccc([N+](=O)[O-])c(C(F)(F)F)c1` [FLUTAMIDE] the “fold change (FC)” value (Cytochrome P450 3A4 [18]) was 1.6, the “fold change (FC)” value (Cytochrome P450 2D6 [19]) was 1.2 and the “fold change (FC)” value (Cytochrome P450 2C9 [20]) was 0.8.

In the case of `CC(C)NCC(O)COc1cccc2ccccc12` (stereo not drawn) [PROPRANOLOL], the “fold change (FC)” value (Cytochrome P450 3A4 [21]) is reported as 4.7, the “fold change (FC)” value (Cytochrome P450 2D6 [22]) is reported as 120.7 and the “fold change (FC)” value (Cytochrome P450 2C9 [23]) is reported as 0.6.
